This note sets out measurements from ChEMBL document CHEMBL6115030, “Systematic All-Hydrocarbon Stapling Analysis for Cecropin A Generates a Potent and Stable Antimicrobial Peptide” (J Med Chem, 2025).

Usually MIC stands for the lowest concentration found to suppress growth. For orientation: HC50 means the concentration giving 50% haemolysis.

The source made the active and inactive calls. The calls are words filed in the database; no cut-off is given here.

One series relates to Staphylococcus aureus. Put plainly: Antibacterial activity against Staphylococcus aureus ATCC 25923 assessed as inhibition of bacterial growth measured after 24 hrs by broth microdilution method. It counts as functional. On the technique in general: Broth dilution looks for growth in wells or tubes with falling amounts of substance.
The next series deals with Klebsiella pneumoniae. The series is described as follows: Antibacterial activity against Klebsiella pneumoniae ATCC 13883 assessed as inhibition of bacterial growth measured after 24 hrs by broth microdilution method. It counts as functional.
The next series has as its system Pseudomonas aeruginosa. Put plainly: Antibacterial activity against Pseudomonas aeruginosa PAO1 assessed as inhibition of bacterial growth measured after 24 hrs by broth microdilution method. It counts as functional.
Series [1] can be described thus: Hemolytic activity in human RBC assessed as hemolysis incubated for 1 hr by microplate reader. The class given is toxicity, cell-based, Erythrocyte. The following applies: red blood cells.
The nature of series [2]: Stability of the compound in human serum assessed as peptide degradation by RP-HPLC analysis. It counts as ADME, cell-free. Particulars: read-out: T50 (converted).
Series [3] in a line: Stability of the compound in human serum assessed as retention time by RP-HPLC analysis. The class given is ADME, cell-free.
In another series the test system is Cell membrane. The series is described as follows: Induction of Outer membrane damage in Escherichia coli assessed as irregular collapsed and rough surface membrane at 5 uM measured after 24 hrs by SEM imaging analysis.
A short description of series [4]: Stability of the compound in human serum assessed as remaining peptide by RP-HPLC analysis. It counts as ADME, cell-free.
Series [5] is described as follows: Toxicity in C57BL/6 mouse assessed as death at 25 mg/kg, ip measured during 14 days of study. It counts as organism-based. The following applies: in vivo, 336 h, time 14 day.
A short description of series [6]: Toxicity in C57BL/6 mouse assessed as increase in body weight at 25 mg/kg, ip measured during 14 days of study. The class given is organism-based. Particulars: in vivo, 336 h, time 14 day.
Series [7] can be described thus: Toxicity in C57BL/6 mouse assessed as death at 50 mg/kg, ip measured on day 4. The class given is organism-based. The following applies: in vivo, 96 h, time 4 day.
Series [8] in a line: Toxicity in C57BL/6 female mouse assessed as apparent inflammatory exudates ([…], neutrophiles, macrophages) in lungs at 25 mg/kg, ip measured during 14 days of study by H and E staining based analysis. It counts as organism-based. Particulars: in vivo, 336 h, time 14 day.
A short description of series [9]: Toxicity in C57BL/6 female mouse assessed as juxtaglomerular cells and interstitial fibrous tissues in kidney at 25 mg/kg, ip measured during 14 days of study by H and E staining based analysis. It counts as organism-based. Particulars: in vivo, 336 h, time 14 day.
A short description of series [10]: Toxicity in C57BL/6 female mouse assessed as haemorrhagic point and blurred white pulp boundary in liver at 25 mg/kg, ip measured during 14 days of study by H and E staining based analysis. It counts as organism-based. The following applies: in vivo, 336 h, time 14 day.
Series [11] is described as follows: Toxicity in C57BL/6 female mouse assessed as haemorrhagic point and blurred white pulp boundary in spleen at 25 mg/kg, ip measured during 14 days of study by H and E staining based analysis. The class given is organism-based. The following applies: in vivo, 336 h, time 14 day.
In series [12] the test system is Escherichia coli. Put plainly: In vivo antibacterial activity against Escherichia coli intraperitoneally injected into C57BL/6 mouse peritonitis model assessed as mouse survival at 2.5 mg/kg, ip measured after 48 hrs relative to control. The class given is functional.
The subject of series [13] is Escherichia coli. Put plainly: In vivo antibacterial activity against Escherichia coli intraperitoneally injected into C57BL/6 mouse peritonitis model assessed as reduction in bacterial load in blood at 2.5 mg/kg, ip measured after 48 hrs relative to control. It counts as functional, organism-based.
Series [14] has as its system Escherichia coli. The series is described as follows: In vivo antibacterial activity against Escherichia coli intraperitoneally injected into C57BL/6 mouse peritonitis model assessed as reduction in bacterial load in liver at 2.5 mg/kg, ip measured after 48 hrs relative to control. The class given is functional, organism-based.
Series [15] deals with Escherichia coli. Put plainly: In vivo antibacterial activity against Escherichia coli intraperitoneally injected into C57BL/6 mouse peritonitis model assessed as reduction in bacterial load in spleen at 2.5 mg/kg, ip measured after 48 hrs relative to control. It counts as functional, organism-based.
In series [16] the test system is Escherichia coli. Put plainly: In vivo antibacterial activity against Escherichia coli intraperitoneally injected into C57BL/6 mouse peritonitis model assessed as reduction in bacterial load in lung at 2.5 mg/kg, ip measured after 48 hrs relative to control. The class given is functional, organism-based.
For series [17], the system named is Escherichia coli. Put plainly: In vivo antibacterial activity against Escherichia coli intraperitoneally injected into C57BL/6 mouse peritonitis model assessed as reduction in bacterial load in kidney at 2.5 mg/kg, ip measured after 48 hrs relative to control. It counts as functional, organism-based.
Series [18] deals with Mus musculus. The series is described as follows: In vivo anti-inflammatory efficacy in Escherichia coli intraperitoneally injected into C57BL/6 mouse peritonitis model assessed as reduction in IL-1beta level in blood at 2.5 mg/kg, ip measured after 48 hrs by ELISA. The class given is functional, organism-based. On the technique in general: ELISA stands for enzyme-linked immunosorbent assay.

The subject of series [19] is Mus musculus. Put plainly: In vivo anti-inflammatory efficacy in Escherichia coli intraperitoneally injected into C57BL/6 mouse peritonitis model assessed as reduction in IL-6 level in blood at 2.5 mg/kg, ip measured after 48 hrs by ELISA. It counts as functional, organism-based.
Series [20] concerns Mus musculus. Put plainly: In vivo anti-inflammatory efficacy in Escherichia coli intraperitoneally injected into C57BL/6 mouse peritonitis model assessed as reduction in TNF-alpha level in blood at 2.5 mg/kg, ip measured after 48 hrs by ELISA. It counts as functional, organism-based.

Turning to “Ac-KWKLFKKIEKVGQNIRDGIIKAGPAVAVVGQATQIAK-NH2”, the MIC with Staphylococcus aureus is greater than 100 µM; with Klebsiella pneumoniae, 12.5 µM; in the series on Pseudomonas aeruginosa it was 100 µM. Moreover, the 50% haemolytic concentration (HC50) at 1 h in [1] was 174 µM. The half-life in series [2] is 2.17 h. For the same substance, the Retention_time in series [3] worked out at 21.69 min. In addition, the outcome in the series on Cell membrane, in the series with Escherichia coli [13], in the series with Escherichia coli [14], in the series with Escherichia coli [15], in the series with Escherichia coli [16] and with Escherichia coli [17] was Active. Also, the outcome with Mus musculus [18], with Mus musculus [19] and in the series with Mus musculus [20] was Active. The Stability in [4] is greater than 50%. Further, the Activity entry in [5] is “Non-toxic”; in series [6], “Toxic”; in series [7] it was “Toxic”; in series [8] it was “Non-toxic”; in [9] it was “Non-toxic”; in [10], “Non-toxic”. For the same substance, the figures for the Activity entry (in series [11]; in the series on Escherichia coli [12]) were “Non-toxic” and 50%, respectively.
